For the assay, the system named is ATCC 6633 Bacillus subtilis strain. Put plainly: agar diffusion determination of antibiotic content / biological potency (USP XXII). The assay is classed as cell-based. The note with it: final product of Example 5, related to USP reference standard. The procedure: The quantitative determination of the antibiotic content of the fermentation broth and final product was performed by using the agar diffusion method according to the prescriptions of USP XXII. on the ATCC 6633 Bacillus subtilis strain. The vancomycin potency values were related to the commercially available USP reference standard.
On the technique in general: Agar diffusion results depend on both activity and mobility in agar.

This is an account of results in patent US5223413A, “Process for the preparation of vancomycin” (Biochin Biotechnologial Leanyvallalat, priority 1989, dated 1993).

Where a name gives a salt, the structure may show the parent alone.

As to `CN[C@H](CC(C)C)C(=O)N[C@H]1C(=O)N[C@@H](CC(N)=O)C(=O)N[C@H]2C(=O)N[C@H]3C(=O)N[C@H](C(=O)N[C@H](C(=O)O)c4cc(O)cc(O)c4-c4cc3ccc4O)[C@H](O)c3ccc(c(Cl)c3)Oc3cc2cc(c3O[C@@H]2O[C@H](CO)[C@@H](O)[C@H](O)[C@H]2O[C@H]2C[C@](C)(N)[C@H](O)[C@H](C)O2)Oc2ccc(cc2Cl)[C@H]1O` [vancomycin hydrochloride], the “biological potency based on microbiological determination” value is reported as “higher than 968 μg/mg”.
